Values of other authors in patent US11672781B2, “Metaxalone formulations” (PRANA BIOSCIENCES INC, priority 2018, dated 2023).

Conditions: independent of pH across the physiological pH range found in the GI tract

Aqueous solubility: less than 50 ug/ml
SMILES: Cc1cc(C)cc(OCC2CNC(=O)O2)c1 (stereo not shown) [metaxalone, 5-[(3,5-dimethylphenoxy)methyl]-2-oxazolidinone]
